Data: ChEMBL document CHEMBL1201862, “PubChem BioAssay data set” (2004)
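Compound exposure: 48 hours, 5 concentrations, 96-well plates. At the GI50, growth is halved.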 The source made the active and inactive calls. Rule as the data show it: active = GI50 up to about 1.1 µM and inactive = higher. Starred links: 1 amine or outer side, 2 acyl side, 3 side chain; linkers in the order of their positions; H or OH if unused. Positions of bridges follow the written chain, without caps; N, C: chain ends. Non-standard residues stand in square brackets, D forms with d. Residues, ends and D or L forms follow the SMILES beside them. Chains are numbered I, II in the order given. Actinocin(1to9) = Cc1c2oc3c(C)ccc(C(=O)[*:2])c3nc-2c(C(=O)[*:1])c(N)c1=O; NMeV = CN[CH](C(=O)O)C(C)C; Sar = CNCC(=O)O

Assays:
Test in all cases: NCI tumour cell line growth inhibition, 48 h
ACHN = system: ACHN
HOP-92 = system: HOP-92
KM12 = system: KM12
LOX IMVI = system: LOX IMVI
MCF7 = system: MCF7
MDA-MB-231 = system: MDA-MB-231
MDA-N = system: MDA-N
Malme-3M = system: Malme-3M
NCI-H226 = system: NCI-H226
NCI-H23 = system: NCI-H23
NCI-H460 = system: NCI-H460
OVCAR-3 = system: OVCAR-3
SF-268 = system: SF-268
SK-MEL-5 = system: SK-MEL-5
SNB-19 = system: SNB-19
SR = system: SR
SW-620 = system: SW-620
T47D = system: T47D
TK-10 = system: TK-10
UACC-62 = system: UACC-62

Compound	GI50 (ACHN)	GI50 (HOP-92)	GI50 (KM12)	GI50 (LOX IMVI)	GI50 (MCF7)	GI50 (MDA-MB-231)	GI50 (MDA-N)	GI50 (Malme-3M)	GI50 (NCI-H226)	GI50 (NCI-H23)	GI50 (NCI-H460)	GI50 (OVCAR-3)	GI50 (SF-268)	GI50 (SK-MEL-5)	GI50 (SNB-19)	GI50 (SR)	GI50 (SW-620)	GI50 (T47D)	GI50 (TK-10)	GI50 (UACC-62)
O=C(NCc1ccccc1)c1cc2ccccc2o/c1=N\c1cccc(C(F)(F)F)c1	46.3 µM (inactive)	75.2 µM (inactive)	48.6 µM (inactive)	35.6 µM (inactive)	42.5 µM (inactive)	75.7 µM (inactive)	54.8 µM (inactive)	48.1 µM (inactive)	29.8 µM (inactive)	57.7 µM (inactive)	41.2 µM (inactive)	67.3 µM (inactive)	> 100 µM (inactive)	26.4 µM (inactive)	> 100 µM (inactive)	21.1 µM (inactive)	43 µM (inactive)	28.1 µM (inactive)	50.4 µM (inactive)	52.2 µM (inactive)
COC1=C(OC)C(=O)c2cc(C)c(=O)c(C)cc2C1=O	14.8 µM (inactive)	16.4 µM (inactive)	17.6 µM (inactive)	11.2 µM (inactive)	17.9 µM (inactive)	7.94 µM (inactive)	2.53 µM (inactive)	17.1 µM (inactive)	18.6 µM (inactive)	16.9 µM (inactive)	24.7 µM (inactive)	10.4 µM (inactive)	13.6 µM (inactive)	15.8 µM (inactive)	18.4 µM (inactive)	2.65 µM (inactive)	8.61 µM (inactive)	28.6 µM (inactive)	19.1 µM (inactive)	13.4 µM (inactive)
O=C1CC(n2cccc2)c2c(Br)sc(Br)c21 (stereo not given)	17.5 µM (inactive)	16.1 µM (inactive)	7.23 µM (inactive)	6.73 µM (inactive)	12 µM (inactive)	15.7 µM (inactive)	16.3 µM (inactive)	18.5 µM (inactive)	18.8 µM (inactive)	13.6 µM (inactive)	18 µM (inactive)	15.8 µM (inactive)	14.8 µM (inactive)	16 µM (inactive)	14.9 µM (inactive)	3.89 µM (inactive)	12.4 µM (inactive)	18.1 µM (inactive)	19.2 µM (inactive)	15.9 µM (inactive)
CCC(C)C1NC(=O)C(NC(=O)c2c3nc4c(C(=O)NC5C(=O)NC(C(C)CC)C(=O)N6CCCC6C(=O)N(C)CC(=O)N(C)C(C(C)C)C(=O)OC5C)ccc(C)c4oc-3c(C)c(=O)c2N)C(C)OC(=O)C(C(C)C)N(C)C(=O)CN(C)C(=O)C2CCCN2C1=O (stereo not given) (I: TIP[Sar][NMeV] / II: TIP[Sar][NMeV]; ester I:1-I:C, II:1-II:C; linker I:N-II:N via Actinocin(1to9); configuration not given here)	0.00162 µM (active)	0.00255 µM (active)	0.00107 µM (active)	< 0.0001 µM (active)	< 0.0001 µM (active)	0.00561 µM (active)	< 0.01 µM (active)	0.000156 µM (active)	0.000889 µM (active)	0.00133 µM (active)	< 0.0001 µM (active)	0.00184 µM (active)	0.00322 µM (active)	0.000198 µM (active)	< 0.0001 µM (active)	< 0.0001 µM (active)	0.000236 µM (active)	0.00173 µM (active)	0.0147 µM (active)	0.000169 µM (active)
